Here are results for ten molecules from patent US10981864B2, “Crystalline modifications of N-(4,5-bismethanesulfonyl-2-methylbenzoyl)guanidine hydrochloride and N-(4,5-bismethanesulfonyl-2-methylbenzoyl)guanidine salts” (MERCK PATENT GMBH, priority 2016, dated 2021).

The test system of series [1] is animal models of DMD and dilated cardiomyopathy. Conditions: cited from earlier work.
The target of series [2] is sodium-hydrogen antiporter 1 (NHE-1) (Homo sapiens, UniProt P19634). Conditions: cited from earlier work.
In the next series the test system is human PASMCs. Conditions: in vitro; cited from earlier work.
Series [3] has as its system monocrotaline-treated rats. As to conditions: in vivo; cited from earlier work.
Series [4] is described as follows: Mini-dissolution in FeSSIF medium (pH 5.0), dissolved quantity by HPLC. Format: physicochemical. As to conditions: for Dissolution levels in FeSSIF pH 5.0: FeSSIF pH 5.0, 37° C.; for Dissolution behavior compared to prior-art form HCl-H1: biorelevant media, Fed-state conditions (FeSSIF, pH 5.0). The procedure:
Approximately 10-12 mg of N-(4,5-bis-methanesulfonyl-2-methyl-benzoyl)guanidine form HCl-H1 (HCl salt hydrate form, prior-art), HCl salt anhydrous forms (forms HCl-A1, HCl-A2, HCl-A3), and novel salt forms [phosphate salt (form Phosphate-NF1), maleate salt (form Maleate-NF2), oxalate salt (form Oxalate-NF1), citrate salt (form citrate-NF1), sulfate salt (form Sulfate-NF3), succinate salt (form Succinate-NF1), malonate salt (form Malonate-NF1), besylate salt (form Besylate-NF1), p-tosylate salt (form Tosylate-NF1), malate salt (form Malate-NF1), fumarate salt (form Fumarate-NF1), tartrate salt (form Tartrate-NF1)] are weighed into 4 mL glass vials, and dispersed in 4 mL FeSSIF medium (pH 5.0, Acetate buffer capacity increased by factor 4 to ensure stable pH conditions over course of dissolution experiments).
All dispersions are agitated at 37° C. for up to 2 hours. At defined time intervals (5 min, 15 min, 60 min, 120 min), 0.4 mL sample aliquots of homogeneous dispersions are withdrawn by a syringe, and filtrated via syringe filter adapters (PTFE, 0.2 μm). Clear filtrates are diluted (1:20) with respective Acetate blank buffer, and diluted samples analyzed by HPLC for dissolved quantities of N-(4,5-bis-methanesulfonyl-2-methyl-benzoyl)-guanidine.

Series [5] can be described thus: Water Vapour Sorption isotherm (DVS), hygroscopicity acc. to Ph. Eur. In kind it is physicochemical. Conditions: for Water uptake levels (Water Vapour Sorption): 25° C.; for Tendency to undergo hydrate formation: upon exposure to elevated RH levels. As for the experimental part: As used herein, unless stated otherwise, Water Vapour Sorption isotherm measurements are carried out on a DVS-1 or a DVS-Intrinsic system from SMS.
A second endothermic event occurs at >180° C., which is due to melting of the dehydrated form. This is followed by immediate re-crystallisation (exothermic event), and subsequent melting of the re-crystallized phase at >240° C. […] DSC scan of form HCl-H1 was acquired on a Mettler-Toledo DSC 821 with a heating rate of 5 K/min, using nitrogen purge gas at 50 mL/min. […] Form HCl-H1 can be classified as non-hygroscopic acc. to Ph. Eur. criteria (section 5.11.). […] Water Vapour Sorption isotherm was acquired on a DVS-1 system from SMS. • Dissolution level of form HCl-H1 in Fed-State Simulated Intestinal Fluid [FeSSIF, pH 5.0] at 37° C. was determined to be approx. 1.50 mg/mL (after 15 min), approx. 4.16 mg/mL (after 60 min), and approx. 4.54 mg/mL (after 120 min), respectively (see example 17).

Series [6] is described as follows: Thermal behaviour (DSC/TGA), thermal stability. Format: physicochemical. Conditions: DSC/TGA 5 K/min. The procedure: As used herein, unless stated otherwise, the DSC measurements are carried out using a Mettler-Toledo DSC 821 with a heating rate of 5 K/min, using nitrogen purge gas at 50 mL/min.
As used herein, unless stated otherwise, the TGA measurements are carried out using a Mettler-Toledo TGA 851 with a heating rate of 5 K/min, using nitrogen purge gas at 50 mL/min.

For the next series, the system named is SuHx rats. As to conditions: in vivo; cited from earlier work.
[7] abbreviates: relative humidity range 0-80% rh.

Values joined by “and” are separate entries in the source; they are usually repeats but may differ in a detail not shown here. Equal values may be shown once. “Also recorded” adds a separate entry of the source.

sodium-hydrogen antiporter 1 (NHE-1), sequence (P19634 whole entry, species assumed): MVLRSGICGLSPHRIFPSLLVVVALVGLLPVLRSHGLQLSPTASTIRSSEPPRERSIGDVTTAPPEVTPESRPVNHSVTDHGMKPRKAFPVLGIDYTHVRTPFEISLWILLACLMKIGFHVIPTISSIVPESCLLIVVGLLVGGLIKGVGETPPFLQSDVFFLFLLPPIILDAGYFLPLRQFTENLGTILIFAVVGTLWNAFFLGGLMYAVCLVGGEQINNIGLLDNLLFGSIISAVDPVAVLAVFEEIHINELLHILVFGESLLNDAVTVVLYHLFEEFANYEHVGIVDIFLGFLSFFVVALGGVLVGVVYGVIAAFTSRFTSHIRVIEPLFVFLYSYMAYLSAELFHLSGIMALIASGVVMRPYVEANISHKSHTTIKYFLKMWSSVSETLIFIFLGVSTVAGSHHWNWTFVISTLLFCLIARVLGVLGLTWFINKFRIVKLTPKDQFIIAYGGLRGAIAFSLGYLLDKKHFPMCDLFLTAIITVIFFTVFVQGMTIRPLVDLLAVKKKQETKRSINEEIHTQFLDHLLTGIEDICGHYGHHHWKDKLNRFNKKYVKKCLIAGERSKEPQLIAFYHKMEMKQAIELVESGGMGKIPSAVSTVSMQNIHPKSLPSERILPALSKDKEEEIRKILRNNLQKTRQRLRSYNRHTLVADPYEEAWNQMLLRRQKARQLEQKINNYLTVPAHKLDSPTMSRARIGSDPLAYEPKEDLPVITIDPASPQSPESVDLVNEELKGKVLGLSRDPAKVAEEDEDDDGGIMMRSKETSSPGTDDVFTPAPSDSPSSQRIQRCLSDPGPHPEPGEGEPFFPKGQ

Turning to `Cc1cc(S(C)(=O)=O)c(S(C)(=O)=O)cc1C(=O)N=C(N)N` [Rimeporide, N-(4,5-bismethanesulfonyl-2-methylbenzoyl)guanidine], the Cardioprotective action entry in series [1] (animal models of DMD and dilated cardiomyopathy) was “good cardioprotective action”. Moreover, the “Long term accumulation of inflammation and fibrosis” value in series [1] (animal models of DMD, skeletal muscles, the heart and the diaphragm) is “prevent against the long term accumulation of inflammation and fibrosis”. Besides, the “Inhibition of NHE-1” value in series [2] is “potent and selective inhibitor”.

For `N=C(N)NC(=O)c1ccc(N2CCN(C(=O)c3ccc[nH]3)CC2)c(C(F)(F)F)c1` [Sabiporide], the “Proliferation and migration of human PASMCs” value with human PASMCs is “inhibit proliferation and migration”.

Regarding `N=C(N)NC(=O)c1nc(Cl)c(N)nc1N` [Amiloride], in the series with human PASMCs, the “Proliferation and migration of human PASMCs” value was “inhibit proliferation and migration”.

Take `CC(C)c1ccc(C(=O)NC(=N)N)cc1S(C)(=O)=O` [cariporide]: in series [3], the “Development of right heart failure” value is “attenuate the development of right heart failure”.

Regarding `Cc1cc(S(C)(=O)=O)c(S(C)(=O)=O)cc1C(=O)NC(=N)N` [Sulfate-NF3, N-(4,5-bis-methanesulfonyl-2-methyl-benzoyl)-guanidine], the “Dissolution levels in FeSSIF pH 5.0” value in series [4] (5 min) is 2.590 mg/mL; in series [4] (15 min), 3.70±0.02 mg/mL and 3.703 mg/mL; in series [4] (60 min), 4.65±0.02 mg/mL and 4.646 mg/mL; in series [4] (120 min), 4.70±0.02 mg/mL and 4.705 mg/mL. The “Dissolution behavior compared to prior-art form HCl-H1” value in series [4] is listed as “improved dissolution behavior”. In addition, the “Hygroscopicity classification acc. to Ph. Eur. criteria (section 5.11.)” value in series [5] is reported as “slightly hygroscopic”. The “Water uptake levels (Water Vapour Sorption)” value (“Water uptake levels” below) in series [5] (setting [7]) was at most 0.5 wt %. The “Thermal stability (mp/dec)” value in series [6] was above 210 °C.

`CCN(c1nc(N)c(C(=O)NC(=N)N)nc1Cl)C(C)C` [EIPA]: in the series on SuHx rats, the Proliferation and migration entry was “inhibit proliferation and migration”. The “Proliferation and migration of human PASMCs” value in the series with human PASMCs was “inhibit proliferation and migration”.

Regarding `Cc1cc(S(C)(=O)=O)c(S(C)(=O)=O)cc1C(=O)NC(=N)N` [Citrate-NF1, N-(4,5-bis-methanesulfonyl-2-methyl-benzoyl)-guanidine], the “Dissolution levels in FeSSIF pH 5.0” value in series [4] (5 min) amounted to 2.056 mg/mL. Moreover, the “Dissolution levels in FeSSIF pH 5.0” value in series [4] (15 min) is 4.13±0.02 mg/mL and 4.132 mg/mL. Also, the “Dissolution behavior compared to prior-art form HCl-H1” value in series [4] is on record as “improved dissolution behavior”. For the same molecule, in series [5], the “Hygroscopicity classification acc. to Ph. Eur. criteria (section 5.11.)” value is “slightly hygroscopic” and the “Tendency to undergo hydrate formation” value is reported as “no tendency to undergo hydrate formation”. The “Water uptake levels” value in series [5] (relative humidity range 0-90% rh) is on record as at most 1.5 wt %. The “Thermal stability (mp/dec)” value in series [6] is around 180 °C.

`Cc1cc(S(C)(=O)=O)c(S(C)(=O)=O)cc1C(=O)NC(=N)N` [Oxalate-NF1, N-(4,5-bis-methanesulfonyl-2-methyl-benzoyl)-guanidine]: the “Dissolution levels in FeSSIF pH 5.0” value in series [4] (5 min) is 1.329 mg/mL; in series [4] (15 min), 2.09±0.02 mg/mL and 2.095 mg/mL; in series [4] (60 min) it was 3.04±0.02 mg/mL and 3.042 mg/mL; in series [4] (120 min), 3.02±0.02 mg/mL and 3.025 mg/mL. Besides, the “Dissolution behavior compared to prior-art form HCl-H1” value in series [4] is “improved dissolution behavior”. For the same molecule, the “Hygroscopicity classification acc. to Ph. Eur. criteria (section 5.11.)” value in series [5] was “non-hygroscopic”. In addition, the “Tendency to undergo hydrate formation” value in series [5] is on record as “no tendency to undergo hydrate formation”. Besides, in series [6], the “Thermal stability (mp/dec)” value was above 260 °C.

`Cc1cc(S(C)(=O)=O)c(S(C)(=O)=O)cc1C(=O)NC(=N)N` [Maleate-NF2, N-(4,5-bis-methanesulfonyl-2-methyl-benzoyl)-guanidine]: the “Dissolution levels in FeSSIF pH 5.0” value in series [4] (5 min) is 2.043 mg/mL; in series [4] (15 min), 4.30±0.02 mg/mL and 4.296 mg/mL; in series [4] (60 min) it was 6.35±0.02 mg/mL and 6.350 mg/mL; in series [4] (120 min) it was 6.35±0.02 mg/mL and 6.350 mg/mL. Moreover, in series [4], the “Dissolution behavior compared to prior-art form HCl-H1” value is on record as “improved dissolution behavior”. Moreover, the “Hygroscopicity classification acc. to Ph. Eur. criteria (section 5.11.)” value in series [5] was “non-hygroscopic; also recorded: slightly hygroscopic”. Further, the “Water uptake levels” value in series [5] (entire relative humidity range 0-98% rh) is recorded as at most 0.3 wt %. In addition, the “Tendency to undergo hydrate formation” value in series [5] is reported as “no tendency to undergo hydrate formation”. Further, in series [6], the “Thermal stability (mp/dec)” value is above 200 °C.

Turning to `Cc1cc(S(C)(=O)=O)c(S(C)(=O)=O)cc1C(=O)NC(=N)N` [Besylate-NF1, N-(4,5-bis-methanesulfonyl-2-methyl-benzoyl)-guanidine], the “Dissolution levels in FeSSIF pH 5.0” value in series [4] (5 min) was 4.059 mg/mL; in series [4] (15 min), 5.57±0.02 mg/mL and 5.570 mg/mL; in series [4] (60 min), 5.57±0.02 mg/mL and 5.570 mg/mL; in series [4] (120 min) it was 3.87±0.02 mg/mL and 3.873 mg/mL. In addition, the “Dissolution behavior compared to prior-art form HCl-H1” value in series [4] is on record as “improved dissolution behavior”. In series [5], the “Hygroscopicity classification acc. to Ph. Eur. criteria (section 5.11.)” value is listed as “slightly hygroscopic”. In addition, the “Water uptake levels” value in series [5] (setting [7]) is on record as 1.0 wt %. Also, the “Thermal stability (mp/dec)” value in series [6] was above 280 °C.
